Experimental data as given in ChEMBL document CHEMBL1201862, “PubChem BioAssay data set” (2004).
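How tested: cells in 96-well plates exposed to compound for 48 hours at five concentrations. At the GI50, growth is halved.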 Activity calls are given as the source filed them. Cut-off read from the data, not from the text of the source: active = GI50 up to about 1.1 µM and inactive = higher.

Legend:
Test in all cases: growth of human tumour cells (NCI), 48 h
CAKI-1 = test system: CAKI-1
CCRF-CEM = test system: CCRF-CEM
HCT-15 = test system: HCT-15
HL-60 = test system: HL-60
Hs-578T = test system: Hs-578T
KM12 = test system: KM12
LOX IMVI = test system: LOX IMVI
MDA-MB-231 = test system: MDA-MB-231
NCI-H522 = test system: NCI-H522
NCI/ADR-RES = test system: NCI/ADR-RES
OVCAR-4 = test system: OVCAR-4
RXF 393 = test system: RXF 393
SNB-75 = test system: SNB-75
SR = test system: SR
SW-620 = test system: SW-620
TK-10 = test system: TK-10
UACC-62 = test system: UACC-62
UO-31 = test system: UO-31
EKVX = test system: EKVX

Structure (SMILES)	GI50 (CAKI-1)	GI50 (CCRF-CEM)	GI50 (HCT-15) [µM]	GI50 (HL-60)	GI50 (Hs-578T)	GI50 (KM12)	GI50 (LOX IMVI)	GI50 (MDA-MB-231)	GI50 (NCI-H522)	GI50 (NCI/ADR-RES)	GI50 (OVCAR-4)	GI50 (RXF 393)	GI50 (SNB-75)	GI50 (SR)	GI50 (SW-620)	GI50 (TK-10)	GI50 (UACC-62)	GI50 (UO-31)	GI50 (EKVX)
C=C=C(C)[Si](C)(C)C	> 100 µM (inactive)	> 100 µM (inactive)	> 100	23.7 µM (inactive)	> 100 µM (inactive)	> 100 µM (inactive)	> 100 µM (inactive)	> 100 µM (inactive)	> 100 µM (inactive)	> 100 µM (inactive)	> 100 µM (inactive)	> 100 µM (inactive)	96.2 µM (inactive)	> 100 µM (inactive)	90.6 µM (inactive)	> 100 µM (inactive)	> 100 µM (inactive)	> 100 µM (inactive)	–
CCOC(=N)CC(=O)Nc1ccccc1	> 100 µM (inactive)	19.4 µM (inactive)	32.8	> 100 µM (inactive)	–	> 46.5 µM (inactive)	47.5 µM (inactive)	–	> 100 µM (inactive)	–	34.5 µM (inactive)	> 46.5 µM (inactive)	> 46.5 µM (inactive)	> 39.9 µM (inactive)	36.9 µM (inactive)	> 46.5 µM (inactive)	> 100 µM (inactive)	> 46.5 µM (inactive)	> 100 µM (inactive)
CCOC(=O)C1C(=O)C(C(=O)OCC)C(c2ccccc2)N(C)C1c1ccccc1 (centres undefined)	> 100 µM (inactive)	> 100 µM (inactive)	82.4	38.7 µM (inactive)	–	> 100 µM (inactive)	33.9 µM (inactive)	–	49.9 µM (inactive)	–	> 100 µM (inactive)	> 100 µM (inactive)	> 100 µM (inactive)	> 100 µM (inactive)	> 100 µM (inactive)	> 100 µM (inactive)	65.6 µM (inactive)	> 100 µM (inactive)	> 100 µM (inactive)
Cc1c(-c2ccccn2)ccc2ccccc12	45 µM (inactive)	28.2 µM (inactive)	27.7	44.6 µM (inactive)	> 100 µM (inactive)	82.8 µM (inactive)	93.3 µM (inactive)	44.6 µM (inactive)	–	45.9 µM (inactive)	–	29.1 µM (inactive)	27.9 µM (inactive)	56.1 µM (inactive)	80.4 µM (inactive)	45.2 µM (inactive)	47.1 µM (inactive)	32.7 µM (inactive)	52.6 µM (inactive)
C#CCn1c(=O)c2ccccc2n(CC#C)c1=O	> 10 µM (inactive)	> 10 µM (inactive)	> 10	–	> 10 µM (inactive)	> 10 µM (inactive)	> 10 µM (inactive)	> 10 µM (inactive)	> 10 µM (inactive)	> 10 µM (inactive)	> 10 µM (inactive)	> 10 µM (inactive)	> 10 µM (inactive)	–	> 10 µM (inactive)	> 10 µM (inactive)	–	> 10 µM (inactive)	> 10 µM (inactive)
O=C1C=Cc2c(-c3ccccc3)oc3cccc1c23	6.55 µM (inactive)	15 µM (inactive)	5.97	9.12 µM (inactive)	–	28.5 µM (inactive)	11.2 µM (inactive)	–	15.3 µM (inactive)	–	40.7 µM (inactive)	24.1 µM (inactive)	4.33 µM (inactive)	10.1 µM (inactive)	18.7 µM (inactive)	39.7 µM (inactive)	11.2 µM (inactive)	6.35 µM (inactive)	3.19 µM (inactive)
